# Measured values as given in ChEMBL document CHEMBL1152596, “Inhibition of serotonin and norepinephrine reuptake and inhibition of phosphodiesterase by multi-target inhibitors as potential agents for depression” (Bioorg Med Chem, 2009).
# What was measured:
# [1] = target: T1, Sodium-dependent dopamine transporter (Homo sapiens, UniProt Q01959)
# Description: Inhibition of [3H]DA reuptake at human DAT expressed in HEK293 cells
# [2] = target: T2, Sodium-dependent serotonin transporter (Homo sapiens, UniProt P31645)
# Description: Inhibition of [3H]5HT reuptake at human SERT expressed in HEK293 cells
# [3] = target: T3, Sodium-dependent noradrenaline transporter (Homo sapiens, UniProt P23975)
# T3 sequence (P23975 whole entry): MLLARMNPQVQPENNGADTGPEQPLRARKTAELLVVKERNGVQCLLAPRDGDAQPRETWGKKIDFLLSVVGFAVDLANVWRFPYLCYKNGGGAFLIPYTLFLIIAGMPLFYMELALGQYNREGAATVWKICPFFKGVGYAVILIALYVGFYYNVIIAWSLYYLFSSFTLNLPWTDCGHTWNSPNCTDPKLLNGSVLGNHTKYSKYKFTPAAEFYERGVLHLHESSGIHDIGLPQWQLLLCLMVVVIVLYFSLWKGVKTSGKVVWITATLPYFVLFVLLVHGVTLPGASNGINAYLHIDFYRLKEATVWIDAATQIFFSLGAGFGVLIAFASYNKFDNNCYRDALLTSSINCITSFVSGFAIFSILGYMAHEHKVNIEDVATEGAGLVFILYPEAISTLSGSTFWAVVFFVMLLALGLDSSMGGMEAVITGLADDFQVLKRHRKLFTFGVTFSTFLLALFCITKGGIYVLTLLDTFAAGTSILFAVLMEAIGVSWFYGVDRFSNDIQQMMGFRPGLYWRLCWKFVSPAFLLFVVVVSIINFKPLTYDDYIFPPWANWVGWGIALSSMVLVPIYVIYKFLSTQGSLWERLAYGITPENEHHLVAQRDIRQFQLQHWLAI
# Description: Inhibition of [3H]NE reuptake at human NET expressed in HEK cells
# [4] = target: 3',5'-cyclic-AMP phosphodiesterase 4D (Homo sapiens, UniProt Q08499)
# Sequence of 3',5'-cyclic-AMP phosphodiesterase 4D (Q08499 whole entry): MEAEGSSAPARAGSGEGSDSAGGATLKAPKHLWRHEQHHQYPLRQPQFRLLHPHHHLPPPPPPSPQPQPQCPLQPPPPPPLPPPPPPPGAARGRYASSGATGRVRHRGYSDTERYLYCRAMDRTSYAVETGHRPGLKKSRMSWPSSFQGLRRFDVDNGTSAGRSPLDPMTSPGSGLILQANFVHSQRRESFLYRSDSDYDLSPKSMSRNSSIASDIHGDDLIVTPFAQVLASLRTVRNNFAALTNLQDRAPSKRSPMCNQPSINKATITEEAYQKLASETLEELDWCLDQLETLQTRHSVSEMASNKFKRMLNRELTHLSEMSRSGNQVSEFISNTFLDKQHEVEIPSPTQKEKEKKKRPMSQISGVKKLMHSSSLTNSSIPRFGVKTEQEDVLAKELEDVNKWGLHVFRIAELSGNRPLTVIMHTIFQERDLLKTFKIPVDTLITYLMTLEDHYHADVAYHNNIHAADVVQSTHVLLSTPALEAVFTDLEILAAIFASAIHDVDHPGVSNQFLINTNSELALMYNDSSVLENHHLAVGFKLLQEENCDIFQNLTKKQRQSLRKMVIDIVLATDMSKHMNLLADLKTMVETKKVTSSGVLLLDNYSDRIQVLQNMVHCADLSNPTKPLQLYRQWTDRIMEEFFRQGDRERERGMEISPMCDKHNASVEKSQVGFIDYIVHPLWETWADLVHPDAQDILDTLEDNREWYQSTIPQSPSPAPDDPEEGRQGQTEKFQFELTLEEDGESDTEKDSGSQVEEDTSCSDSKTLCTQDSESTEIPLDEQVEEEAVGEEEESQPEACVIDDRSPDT
# Description: Inhibition of PDE4D2 assessed as cAMP hydrolysis
# [5] = target: T1, Sodium-dependent dopamine transporter; test: biochemical
# Description: Displacement of [125I]RTI-55 from human recombinant DAT expressed in HEK293 cells
# [6] = target: T2, Sodium-dependent serotonin transporter; test: biochemical
# Description: Displacement of [125I]RTI-55 from human recombinant SERT expressed in HEK293 cells
# [7] = target: T3, Sodium-dependent noradrenaline transporter; test: biochemical
# Description: Displacement of [125I]RTI-55 from human recombinant NET expressed in HEK293 cells by scintillation counting
# T2 sequence (P31645 whole entry): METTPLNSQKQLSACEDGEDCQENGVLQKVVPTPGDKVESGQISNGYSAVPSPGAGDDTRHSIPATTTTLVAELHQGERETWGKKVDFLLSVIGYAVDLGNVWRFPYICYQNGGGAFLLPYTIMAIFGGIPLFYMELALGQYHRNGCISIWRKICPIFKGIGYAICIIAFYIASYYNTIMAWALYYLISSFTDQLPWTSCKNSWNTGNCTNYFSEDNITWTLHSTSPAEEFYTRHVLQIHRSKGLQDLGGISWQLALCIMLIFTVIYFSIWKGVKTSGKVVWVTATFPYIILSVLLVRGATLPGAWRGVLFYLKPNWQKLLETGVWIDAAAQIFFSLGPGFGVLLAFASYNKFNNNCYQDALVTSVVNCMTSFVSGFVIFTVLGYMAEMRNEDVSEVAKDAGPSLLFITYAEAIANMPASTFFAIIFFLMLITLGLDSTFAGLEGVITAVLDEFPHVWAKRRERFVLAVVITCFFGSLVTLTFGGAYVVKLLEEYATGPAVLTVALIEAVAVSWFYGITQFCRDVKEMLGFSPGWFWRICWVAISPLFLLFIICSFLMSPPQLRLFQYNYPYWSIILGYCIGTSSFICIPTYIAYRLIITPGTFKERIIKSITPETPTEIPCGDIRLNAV
# T1 sequence (Q01959 whole entry): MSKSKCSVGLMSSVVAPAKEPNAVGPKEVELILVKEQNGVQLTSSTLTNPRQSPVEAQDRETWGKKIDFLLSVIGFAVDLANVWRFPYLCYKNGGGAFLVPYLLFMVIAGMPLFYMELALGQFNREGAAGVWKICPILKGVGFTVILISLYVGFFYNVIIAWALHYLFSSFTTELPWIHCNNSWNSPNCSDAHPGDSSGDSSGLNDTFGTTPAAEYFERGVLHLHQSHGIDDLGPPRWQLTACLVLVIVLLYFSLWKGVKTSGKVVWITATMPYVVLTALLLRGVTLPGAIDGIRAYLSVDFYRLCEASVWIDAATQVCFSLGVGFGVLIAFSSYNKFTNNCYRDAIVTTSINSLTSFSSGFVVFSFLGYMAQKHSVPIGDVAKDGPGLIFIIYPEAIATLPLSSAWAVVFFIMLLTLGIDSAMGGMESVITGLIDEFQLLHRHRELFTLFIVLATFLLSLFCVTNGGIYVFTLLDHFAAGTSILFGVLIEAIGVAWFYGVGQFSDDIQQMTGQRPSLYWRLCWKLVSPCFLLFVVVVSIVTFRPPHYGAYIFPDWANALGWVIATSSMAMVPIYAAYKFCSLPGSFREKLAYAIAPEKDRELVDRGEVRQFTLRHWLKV
IC50 [1],IC50 [2],IC50 [3],IC50 [4],Ki [5],Ki [6],Ki [7],Structure (SMILES)
1790 nM,442 nM,2100 nM,45 nM,857 nM,127 nM,3240 nM,COc1ccc(C2=NN(CCCCCNCC[C@@H](Oc3cccc4ccccc34)c3cccs3)C(=O)[C@@H]3CC=CC[C@H]23)cc1OC
6630 nM,404 nM,2190 nM,23 nM,4600 nM,726 nM,> 100000 nM,COc1ccc(C2=NN(CCCCCNCC[C@H](Oc3cccc4ccccc34)c3cccs3)C(=O)[C@@H]3CC=CC[C@H]23)cc1OC
> 100000 nM,> 100000 nM,> 100000 nM,213 nM,> 100000 nM,> 100000 nM,> 100000 nM,COc1ccc(C2=NNC(=O)[C@@H]3CC=CC[C@H]23)cc1OC (relative stereo)
> 10000 nM,25.6 nM,445 nM,> 100000 nM,> 10000 nM,18 nM,2400 nM,NCC[C@H](Oc1cccc2ccccc12)c1cccs1 [(S)-NORDULOXETINE]
> 10000 nM,6.8 nM,188 nM,> 100000 nM,3550 nM,8.3 nM,953 nM,NCC[C@@H](Oc1cccc2ccccc12)c1cccs1 [R-NORDULOXETINE]
